# Test results as given in BindingDB's records for patent US20250051327 (Exscientia AI, 2025).
# Target: T1, Mucosa-associated lymphoid tissue lymphoma translocation protein 1 (Homo sapiens, UniProt Q9UDY8)
# T1 sequence (Q9UDY8 whole entry): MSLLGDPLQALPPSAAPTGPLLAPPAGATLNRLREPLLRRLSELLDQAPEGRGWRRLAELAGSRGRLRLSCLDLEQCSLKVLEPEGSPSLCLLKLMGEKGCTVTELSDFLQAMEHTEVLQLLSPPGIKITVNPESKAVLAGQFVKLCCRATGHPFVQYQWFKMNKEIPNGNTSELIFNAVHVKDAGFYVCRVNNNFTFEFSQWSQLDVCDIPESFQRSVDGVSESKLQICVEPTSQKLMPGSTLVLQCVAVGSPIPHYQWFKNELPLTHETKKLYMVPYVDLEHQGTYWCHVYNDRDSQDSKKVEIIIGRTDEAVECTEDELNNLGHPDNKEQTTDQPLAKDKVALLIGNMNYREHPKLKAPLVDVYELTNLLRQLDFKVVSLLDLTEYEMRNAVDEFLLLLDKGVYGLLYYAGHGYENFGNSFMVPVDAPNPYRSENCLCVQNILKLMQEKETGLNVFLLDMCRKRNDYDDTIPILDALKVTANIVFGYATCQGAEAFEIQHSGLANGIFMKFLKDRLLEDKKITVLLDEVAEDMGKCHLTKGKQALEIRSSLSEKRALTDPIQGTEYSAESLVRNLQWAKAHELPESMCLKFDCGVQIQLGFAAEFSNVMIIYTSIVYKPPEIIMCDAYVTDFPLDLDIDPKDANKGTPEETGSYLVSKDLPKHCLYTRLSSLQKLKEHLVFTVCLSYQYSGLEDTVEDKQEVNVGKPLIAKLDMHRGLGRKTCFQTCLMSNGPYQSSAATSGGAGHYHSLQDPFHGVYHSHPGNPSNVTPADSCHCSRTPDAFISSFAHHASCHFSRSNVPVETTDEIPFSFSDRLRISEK
# Experiment: MALT-1 Inhibition Assay
# Protocol: MALT-1 paracaspase activity was measured using the fluorogenic substrate Ac-LRSR-Rh110-DP (purchased from Biosantan GmbH). Proteolytic cleavage of the peptide—rhodamine conjugate results in an increase of rhodamine fluorescence which is inhibited by test compounds. Test compounds were diluted in DMSO in a series of 10 semi-log step doses, 15 nL of each compound dose were dispensed in 384 well polypropylene plates (HiBase non-binding, Greiner Bio-One cat #784900). All other assay components were diluted to appropriate working concentrations in assay buffer composed of: 200 mM Tris-HCl (pH 7.5; Sigma-Aldrich cat #T2663-1L), 0.1 mM EGTA (Sigma-Aldrich cat #E3889-10G), 0.05% CHAPS—Sigma-Aldrich cat #C9426-1G), 1 mM TCEP (Sigma-Aldrich cat #646547-10×1 mL), 0.8 M sodium citrate (Sigma-Aldrich cat #S1804-500G). Recombinant human MALT-1 (amino acids 340-824, accession NP_006776.1) was added to compound doses and equilibrated for 40 minutes at rt. The reaction was initiated by addition of substrate. Final concentrations of MALT-1 and substrate were 3 nM and 10 μM respectively. Reactions were incubated in the dark for 60 minutes at 25° C. Fluorescence was measured in a PHERAstar FSX plate reader (BMG LABTECH) with optical setup for excitation at 485 nm and emission at 520 nm, focal height of 11.8 mm, 20 flashes, gain 300. Percent inhibition values were calculated from relative fluorescence units at different doses and fitted to a 4-parameter logistic curve to determine IC50 values.
row,IC50 [nM],Compound
1,53,"CN(C(=O)[C@H]1CC[S@@](=N)(=O)CC1)[C@@H](c1ccc(N2CC(C)(C)Cc3c2cnc2cc(Cl)nn32)cc1)C(F)(F)F [US20250051327, Reference CPD0073498]"
2,115,"COC[C@@H]1CCN(c2ccc([C@H](N(C)C(=O)C3CCS(=O)(=O)CC3)C(F)(F)F)cc2)c2cnc3cc(Cl)nn3c21 [US20250051327, Reference CPD0073503]"
3,403,"O=C(CC1CS(=O)(=O)C1)N[C@@H](c1ccc(N2CCCc3c2cnc2cc(Cl)nn32)cc1)C(F)(F)F [US20250051327, Reference CPD0073535]"
4,53,"CN(C(=O)C1CCS(=O)(=O)CC1)[C@@H](c1ccc(N2CC[C@@]3(CCOC3)c3c2cnc2cc(Cl)nn32)cc1)C(F)(F)F [US20250051327, Reference CPD0073762]"
5,57,"CN(C(=O)C1CCS(=O)(=O)CC1)[C@@H](c1ccc(N2CC[C@]3(CCOC3)c3c2cnc2cc(Cl)nn32)cc1)C(F)(F)F [US20250051327, Reference CPD0073763]"
6,155,"CN(C(=O)[C@@H]1CS(=O)(=O)CC12COC2)[C@@H](c1ccc(N2CCCc3c2cnc2cc(Cl)nn32)cc1)C(F)(F)F [US20250051327, Reference CPD0073974]"
7,112,"CN(C(=O)[C@H]1CS(=O)(=O)CC12COC2)[C@@H](c1ccc(N2CCCc3c2cnc2cc(Cl)nn32)cc1)C(F)(F)F [US20250051327, Reference CPD0073975]"
8,138,"COc1ccc2ncc(Nc3ccc([C@H](N(C)C(=O)C4CCS(=O)(=O)CC4)C(F)(F)F)cc3)c([C@H]3CCOC3)c2n1 [US20250051327, Reference CPD0074039]"
9,83,"COc1ccc2ncc(Nc3ccc([C@H](N(C)C(=O)C4CCS(=O)(=O)CC4)C(F)(F)F)cc3)c([C@@H]3CCOC3)c2n1 [US20250051327, Reference CPD0074040]"
10,124,"COc1ccc2ncc(Nc3ccc([C@H](N(C)C(=O)C4CCS(=O)(=O)CC4)C(F)(F)F)cc3)c(C3(OC)COC3)c2n1 [US20250051327, Reference CPD0076414]"
11,45,"CO[C@@H](C)c1c(Nc2ccc([C@H](N(C)C(=O)[C@@H]3CCC(=O)N3)C(F)(F)F)cc2)cnn2cc(Cl)nc12 [US20250051327, Reference CPD0082470]"
12,41,"COc1ccc2ncc(Nc3ccc([C@H](N(C)C(=O)[C@@H]4CNC(=O)C4)C(F)(F)F)cc3)c([C@@H]3CCOC3)c2n1 [US20250051327, Reference CPD0084142]"
13,137,"CO[C@@H](C)c1c(Nc2ccc([C@H](N(C)C(=O)CN3CCN(C)CC3)C(F)(F)F)cc2)cnn2cc(Cl)nc12 [US20250051327, Reference CPD0084933]"
14,65,"CO[C@@H](C)c1c(Nc2ccc([C@H](N(C)C(=O)C3CN(S(C)(=O)=O)C3)C(F)(F)F)cc2)cnn2cc(Cl)nc12 [US20250051327, Reference CPD0084936]"
